Series [1] has as its system U-2 OS human osteosarcoma cells. Put plainly: cells. In kind it is cell-based. The note with it: average of two measurements. Here is the method:
(§1) Cytotoxicity testing of pretubulysin (AU827), N-desmethyl-pretubulysin (AU816) and Tubulysin A and D was performed as follows: Cells were seeded at 6×10^3 cells per well of 96-well plates in 180 μl complete medium and directly treated with varying concentrations of (pre-)tubulysins diluted in methanol. Each compound was tested in duplicate as well as the internal methanol control. After 5 d incubation, 20 μl of 5 mg/ml MTT (Thiazolyl blue tetrazolium bromide) in PBS was added per well and it was further incubated for 2 h at 37° C. The medium was then discarded and cells were washed with 100 μl PBS before adding 100 μl 2-propanol/10 N HCl (250:1) in order to dissolve formazan granules.
The absorbance at 570 nm was measured using a microplate reader (EL808, Bio-Tek Instruments Inc.), and cell viability was expressed as percentage relative to the respective methanol control. IC50 values were obtained by plotting relative growth inhibition in % against the compound concentration on a logarithmic scale. After sigmoidal curve fitting IC50 values can be determined. The IC50[per ml] are shown in the following table (values represent the average of two measurements):
Similarly cytotoxicity testing of Pretubulysin-related compounds in U-2 OS human osteosarcoma cells was performed and was further compared with AU 339 and AU 954, compounds mentioned in WO2008/106080 and WO2004/046170. The IC50 values are shown in the following table (values represent the average of two measurements): […]

In series [2] the test system is HL-60 cells. The experiment in a line: cells. The following applies: for anti-proliferation effects: HL-60, concentrations up to 100 ng/ml. Here is the method: A given number of cells were cultivated in 96-well plates with serial dilutions of the drugs up to 100 ng/ml. Tubulysin A is used as a positive control, whereas methanol is used as a negative control. After 5 days of incubation the metabolic activities of the cells were measured using MTT-assay as described under the methods section.
The effect of pre-tubulysin 816 and 827 was tested with regard to the growth of other cell lines, including the mouse connective tissues fibroblast L929, the human lung carcinoma cell line A549, the human colon adenocarcinoma cell line SW-480, and the human histiocytic lymphoma cell line U937, in addition to the human myeloid leukemia cell line HL-60.

Series [3] relates to COS-7. Put plainly: cells. In kind it is cell-based, African green monkey. The following applies: COS-7, average of two measurements. As for the experimental part:
as §1
(§2) The absorbance at 570 nm was measured using a microplate reader (EL808, Bio-Tek Instruments Inc.), and cell viability was expressed as percentage relative to the respective methanol control. IC50 values were obtained by plotting relative growth inhibition in % against the compound concentration on a logarithmic scale. After sigmoidal curve fitting IC50 values can be determined. The IC50[per ml] are shown in the following table (values represent the average of two measurements): […]

For series [4], the system named is L929. The experiment in a line: cells. Type of series: cell-based, mouse. The following applies: L929, average of two measurements. Here is the method: as §1, §2
Series [5] deals with A431. Put plainly: cells. In kind it is cell-based, human. The note with it: A431, average of two measurements. As for the experimental part:
as §1, §2

In series [6] the test system is A549. The experiment in a line: cells. Type of series: cell-based, human. The note with it: A549, average of two measurements. As for the experimental part:
as §1, §2

The test system of series [7] is HEK293T. Put plainly: cells. In kind it is cell-based, human. The note with it: average of two measurements. As for the experimental part: as §1, §2
Series [8] has as its system HL-60. The experiment in a line: cells. In kind it is cell-based, human. The note with it: HL-60, average of two measurements. Here is the method: as §1, §2
The test system of series [9] is HepG2. The experiment in a line: cells. In kind it is cell-based, human. The note with it: HepG2, average of two measurements. As for the experimental part:
as §1, §2

For series [10], the system named is K562. Put plainly: cells. In kind it is cell-based, human. The note with it: K562, average of two measurements. As for the experimental part: as §1, §2
Series [11] relates to KB3.1. The experiment in a line: cells. In kind it is cell-based, human. The note with it: KB3.1, average of two measurements. Here is the method:
as §1, §2

Series [12] relates to SH-SY5Y. The experiment in a line: cells. The note with it: average of two measurements. Type of series: cell-based, human. As for the experimental part: as §1, §2
For series [13], the system named is SW480. The experiment in a line: cells. The following applies: SW480, average of two measurements. In kind it is cell-based, human. Here is the method:
as §1, §2

For series [14], the system named is U937. The experiment in a line: cells. Type of series: cell-based, human. The note with it: U937, average of two measurements. Here is the method: as §1, §2
Series [15] deals with PtK2 cells. In kind it is cell-based. The note with it: 24 hours incubation. As for the experimental part:
Cell staining: Ptk2 cells were seeded on round glass coverslips (13 mm in diameter) in 4-well plates. Cells were incubated with the drugs to the given times as indicated for each experiment. For staining the microtubules and the nuclei, cells were firstly fixed with cold (−20° C.) acetone/methanol (1:1) for 10 min. For labelling the microtubules, cells were incubated with a primary monoclonal antibody against α-tubulin (1:500 Sigam) for 45 min at 37° C., followed by a secondary anti-mouse IgG antibody conjugated with Alexa488 (1:2000; Molecular probes) under the same incubations conditions. The nuclei were stained with DAPI (1 μg/ml in PBS). The cells were washed with phosphate buffer saline (PBS) between incubations. Coverslips were mounted by using Prolong Antifade (Molecular Probes) and imaged through a fluorescence microscope (LSM-Zeiss) with appropriate filter set.
Tubulysin A and D are known to induce de-polymerization of the interphase microtubules of mammalian cells and additionally induce a multi-polar spindle pool in mitotic cells (Khalil, M. et al., Chembiochem. 7, 678-683 (2006); Sasse, F., Menche, D. Nat. Chem. Biol. 3, 87-89 (2007)). Here the effect of pre-tubulysin treatment on the morphologies of microtubules and microtubules related structures in PtK2 cells was tested. PtK2 cells were seeded onto glass cover clips in 4 well plates and cultivated for 24 or 48 hours under growth conditions. The cells were then treated with different concentrations of tubulysin A, tubulysin D, pre-tubulysin-816 or pre-tubulysin-827. The control cells were treated only with equivalent amount of methanol (solvent). The cells were thin incubated for further 24 hours before they were fixed as described under the methods section. Fixed cells were then washed with PBS and finally labeled with anti-α-tubulin primary antibodies followed by anti-mouse-alexa-488 secondary antibodies to visualize the microtubules. The nuclei were stained with DAPI.

The test system of series [16] is cancer cell lines. The following applies: growth inhibition of cancer cell lines; cited from earlier work.
For series [17], the system named is L929. Put plainly: Anti-proliferation MTT assay (Example 2, Table 1). Type of series: cell-based. The following applies: L929 mouse connective tissue fibroblast. For orientation: Tetrazolium dyes change colour on reduction, which living cells bring about.
Series [18] has as its system U937. Put plainly: Anti-proliferation MTT assay (Example 2, Table 1). Type of series: cell-based. The following applies: U937 human histiocytic lymphoma.
The mark [19] stands for this setting: Homo sapiens, U2OS, comparison with prior art compounds, read-out: IC50.

Each structure is given as a SMILES string. Converted amounts (≈) assume the structure as drawn. Where two headings read alike, the source gives them in different places.

Turning to `CCOC(=O)/C(C)=C/[C@H](Cc1ccccc1)NC(=O)c1csc(CC[C@H](C(C)C)N(C)C(=O)[C@@H](NC(=O)[C@H]2CCCCN2C)[C@@H](C)CC)n1` [AU939], the IC50 in series [1] (setting [19]) amounted to 339 ng/mL (≈ 487 nM).

For `CC[C@H](C)[C@H](NC(=O)[C@H]1CCCCN1C)C(=O)N(C)[C@H](CCc1nc(C(=O)O)cs1)C(C)C` [pre-tubulysin-814], the anti-proliferation effects result in [2] (5 days, MTT) is given as “no anti-proliferation effects”. For the same compound, the cytotoxic activity result in series [2] (at concentration up to 11 μg/ml, listed as Pre-tub-814) is recorded as “did not show any cytotoxic activity”.

As to `CC[C@H](C)[C@H](NC(=O)CN(C)C)C(=O)N(C)[C@H](CCc1nc(C(=O)N[C@H](CCC(=O)O)Cc2ccccc2)cs1)C(C)C` [pre-tubulysin-825], the anti-proliferation effects entry in series [2] (5 days, MTT) is recorded as “no anti-proliferation effects”. Moreover, the 50% inhibitory concentration (IC50) in series [2] (Homo sapiens, HL-60) turned out to be 600 ng/mL (≈ 974 nM).

On to `CC[C@H](C)[C@H](NC(=O)[C@H]1CCCCN1C)C(=O)N(C)[C@H](CCc1nc(C(=O)N[C@H](/C=C(\C)C(=O)O)Cc2ccccc2)cs1)C(C)C` [AU954], for which the 50% inhibitory concentration (IC50) in series [1] (setting [19]) was 82 ng/mL (≈ 123 nM).

Regarding `CC[C@H](C)[C@H](NC(=O)[C@H]1CCCCN1C)C(=O)N(C)[C@H](CCc1nc(C(=O)N[C@@H](Cc2ccccc2)C(=O)O)cs1)C(C)C` [pre-tubulysin-815], the anti-proliferation effects entry in series [2] (5 days, MTT) is listed as “no anti-proliferation effects”. The same compound returned an IC50 in series [2] (Homo sapiens, HL-60) of 700 ng/mL (≈ 1110 nM).

As for `CC[C@H](C)[C@H](NC(=O)[C@H]1CCCCN1C)C(=O)N(COC(=O)CC(C)C)[C@H](C[C@@H](OC(C)=O)c1nc(C(=O)N[C@@H](Cc2ccccc2)C[C@H](C)C(=O)O)cs1)C(C)C` [Tubulysin D, reference compound], the IC50 was determined as 0.0337 ng/mL (≈ 0.0407 nM) in series [3] (Chlorocebus sabaeus, read-out: IC50); 0.017 ng/mL (≈ 0.0205 nM) in series [4] (Mus musculus, read-out: IC50); 0.0119 ng/mL (≈ 0.0144 nM) in series [5] (Homo sapiens, A-431, read-out: IC50); 0.0056 ng/mL (≈ 0.00676 nM) in series [6] (Homo sapiens, read-out: IC50); 0.0104 ng/mL (≈ 0.0126 nM) in series [7] (Homo sapiens, HEK-293T, read-out: IC50); 0.0028 ng/mL (≈ 0.00338 nM) in series [8] (Homo sapiens, read-out: IC50). The IC50 worked out at 0.0066 ng/mL (≈ 0.00797 nM) in series [9] (Homo sapiens, read-out: IC50); 0.0222 ng/mL (≈ 0.0268 nM) in series [10] (Homo sapiens, read-out: IC50); 0.0182 ng/mL (≈ 0.022 nM) in [11] (Homo sapiens, KB 3-1, read-out: IC50); 0.0113 ng/mL (≈ 0.0136 nM) in series [12] (Homo sapiens, read-out: IC50); 0.0037 ng/mL (≈ 0.00447 nM) in series [13] (Homo sapiens, read-out: IC50); 0.0025 ng/mL (≈ 0.00302 nM) in series [14] (Homo sapiens, U-937, read-out: IC50). The concentration for half-maximal inhibition (IC50) was 0.0342 ng/mL (≈ 0.0413 nM) in [1] (Homo sapiens, U2OS, read-out: IC50) and 0.034 ng/mL (≈ 0.0411 nM) in series [1] (setting [19]). Further, the “concentration for complete de-polymerization (disappearance) of interphase microtubules” value in series [15] came out at 50 pg/mL. For the same compound, in [16], the “potency relative to tubulysin A” value is “approximately 10 folds”.

Consider `CC[C@H](C)[C@H](NC(=O)[C@H]1CCCCN1C)C(=O)N(COC(=O)CC(C)C)[C@H](C[C@@H](OC(C)=O)c1nc(C(=O)N[C@@H](Cc2ccc(O)cc2)C[C@H](C)C(=O)O)cs1)C(C)C` [Tubulysin A, reference compound], for which the half-maximal inhibitory concentration (IC50) in series [2] (HL-60, serial dilutions up to 100 ng/ml, 5 days, MTT) stood at 0.0019 ng/mL (≈ 0.00225 nM); in series [3] it was 0.0806 ng/mL (≈ 0.0955 nM); in [4] it was 0.21 ng/mL (≈ 0.249 nM); in [5], 0.1002 ng/mL (≈ 0.119 nM); in series [6] it was 0.0856 ng/mL (≈ 0.101 nM); in series [7] it was 0.0523 ng/mL (≈ 0.062 nM). In addition, the IC50 in series [8] is 0.0479 ng/mL (≈ 0.0567 nM); in [9], 0.12 ng/mL (≈ 0.142 nM); in series [10], 0.40 ng/mL (≈ 0.474 nM); in series [11], 0.16 ng/mL (≈ 0.19 nM); in [12] it was 0.21 ng/mL (≈ 0.249 nM); in series [13], 0.0187 ng/mL (≈ 0.0222 nM). For the same compound, the IC50 in series [14] is 0.0461 ng/mL (≈ 0.0546 nM); in [1], 0.19 ng/mL (≈ 0.225 nM); in [1] (comparison with prior art compounds), 0.19 ng/mL (≈ 0.225 nM). Further, the IC50 value in [2] (HL-60 human acute myeloid leukemia (Table 1)) was determined as 0.002 ng/mL (≈ 0.00237 nM); in series [17] it was 0.15 ng/mL (≈ 0.178 nM); in series [18] it was 0.002 ng/mL (≈ 0.00237 nM). Also, the “concentration for complete de-polymerization (disappearance) of interphase microtubules” value in series [15] stood at 500 pg/mL.

What is called IC50 is the concentration that inhibits the measured activity by half.

(Values after patent US8791098B2 (priority 2008, dated 2014).)
